Data from patent US20260250318A1, “COMPOSITIONS AND METHODS FOR CROSSING THE BLOOD BRAIN BARRIER” (VOYAGER THERAPEUTICS, INC., priority 2022, published 2026).

Experiments:
Conditions in all cases: synthetic library passage 3, intravenous, relative to wild-type AAV9
brain [1] = test: NGS fold enrichment of synthetic library (passage 3) in BALB/c mice, first cross-species screen; format: in vivo
Method in brief: (§1)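 Passage-3 synthetic capsid library given intravenously […] to NHPs (2-4 years) and BALB/c or C57Bl/6 mice (n=3, 6-8 weeks). After e.g. 28 days, tissue RNA was RT-PCR amplified and NGS-sequenced; values are fold enrichment of each variant relative to wild-type AAV9.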

[2] = system: brain, spinal cord, and DRG of the NHPs; test: NGS fold enrichment of synthetic library (passage 3) in NHPs, first cross-species screen; format: in vivo, cynomolgus macaques (Macaca fascicularis)
Method in brief: as §1

brain [3] = test: NGS fold enrichment of synthetic library (passage 3) in C57Bl/6 mice, first cross-species screen; format: in vivo
Method in brief: as §1

[4] = RNA from brain of BALB/c mice, NGS
[5] = RNA from spinal cord of NHPs, NGS
[6] = RNA from brain of C57Bl/6 mice, NGS

Sequence | Fold enrichment over AAV9 in the brain of Mice (BALB/c) (brain [1]; [4]) [fold] | Fold enrichment over AAV9 in the brain of NHPs ([2]; RNA from brain of NHPs, NGS) [fold] | Fold enrichment over AAV9 in the spinal cord of NHPs [2, 5] [fold] | Fold enrichment over AAV9 in the brain of Mice (C57Bl/6) (brain [3]; [6]) [fold] | Fold enrichment over AAV9 in the brain of Mice (BALB/c) (brain [1]; RNA NGS, brain of BALB/c mice) [fold] | Fold enrichment over AAV9 in the brain of NHPs ([2]; RNA NGS, brain of NHPs) [fold] | Fold enrichment over AAV9 in the spinal cord of NHPs ([2]; RNA NGS, spinal cord of NHPs) [fold] | Fold enrichment over AAV9 in the brain of Mice (C57Bl/6) (brain [3]; RNA NGS, brain of C57Bl/6 mice) [fold]
GSGQRGSLTENQQT | 0.567 | 1.337 | 2.482 | 0.300 |  |  |  | 
GVVHITNSGQNQQT |  |  |  |  | 0.846 | 1.969 | 0.504 | 0.794
GDSSSRISGQNQQT | 0.348 | 1.151 | 3.787 | 0.916 |  |  |  | 
GSGNMHASRQNQQT | 0.687 | 1.238 | 3.878 | 0.782 |  |  |  | 
GSLSTPSSGQNQQT |  |  |  |  | 0.669 | 2.159 | 1.279 | 1.094
GNSMERTSGQNQQT |  |  |  |  | 0.935 | 2.221 | 4.177 | 1.047
GSFYPSSTGQNQQT |  |  |  |  | 0.277 | 2.047 | 2.374 | 0.420
GSGHMTYREKNQQT |  |  |  |  | 0.540 | 2.633 | 5.267 | 1.257
GSGQNQQTSHFPSA | 0.907 | 1.185 | 0.325 | 0.969 |  |  |  | 
GSRTYQVSGQNQQT | 0.641 | 1.164 | 1.853 | 0.638 |  |  |  | 
GSGGVTYQSQNQQT |  |  |  |  | 0.181 | 1.673 | 7.283 | 0.649
GSGQNLAGRMDQQT |  |  |  |  | 0.295 | 1.864 | 0.085 | 0.362
GSSRVPVSGQNQQT | 0.485 | 1.385 | 13.191 | 0.870 |  |  |  | 
GSTPAGVGGQNQQT |  |  |  |  | 0.477 | 1.663 | 2.733 | 0.593
GDSSLRHSGQNQQT |  |  |  |  | 0.412 | 2.194 | 0.000 | 0.662
GSGQSHRDVLNQQT |  |  |  |  | 0.280 | 1.872 | 15.082 | 0.138
GTEQTRQSGQNQQT | 0.756 | 1.188 | 0.132 | 0.756 |  |  |  | 
GSFSMHTHGQNQQT |  |  |  |  | 0.693 | 2.535 | 0.118 | 1.027
GSGQNQQPNSGSMT |  |  |  |  | 0.339 | 1.064 | 0.925 | 0.588
GSGLRQTSQQNQQT |  |  |  |  | 0.705 | 1.537 | 2.067 | 0.978

Sequence | Fold enrichment over AAV9 in the brain of Mice (BALB/c) (brain [1]; [4]) [fold] | Fold enrichment over AAV9 in the brain of NHPs ([2]; RNA from brain of NHPs, NGS) [fold] | Fold enrichment over AAV9 in the spinal cord of NHPs [2, 5] [fold] | Fold enrichment over AAV9 in the brain of Mice (C57Bl/6) (brain [3]; [6]) [fold] | Fold enrichment over AAV9 in the brain of Mice (BALB/c) (brain [1]; RNA NGS, brain of BALB/c mice) [fold] | Fold enrichment over AAV9 in the brain of NHPs ([2]; RNA NGS, brain of NHPs) [fold] | Fold enrichment over AAV9 in the spinal cord of NHPs ([2]; RNA NGS, spinal cord of NHPs) [fold] | Fold enrichment over AAV9 in the brain of Mice (C57Bl/6) (brain [3]; RNA NGS, brain of C57Bl/6 mice) [fold]
GSGDLRISPQNQQT |  |  |  |  | 0.237 | 2.012 | 16.207 | 0.620
GSGQNVSMQVNQQT | 0.251 | 1.341 | 0.000 | 0.357 |  |  |  | 
GSGQNQRAVLNDQT | 0.259 | 1.242 | 3.023 | 0.556 |  |  |  | 
GSGHLPQSAQNQQT |  |  |  |  | 0.496 | 2.803 | 7.828 | 0.826
GSGLSVHLAQNQQT |  |  |  |  | 0.508 | 2.657 | 1.234 | 0.806
GSGQNQQPHLKSLT |  |  |  |  | 0.740 | 1.457 | 5.016 | 1.096
GSGQNQQSSFNVQT |  |  |  |  | 0.675 | 0.998 | 0.000 | 1.307
GSGQNSYSHTSQQT |  |  |  |  | 0.658 | 1.765 | 2.262 | 1.130
GSGQSSYGSGNQQT | 0.456 | 1.257 | 1.686 | 1.161 |  |  |  | 
GSGNPVSHLQNQQT |  |  |  |  | 0.310 | 1.121 | 1.037 | 0.583
GGGDLGRSSQNQQT |  |  |  |  | 0.539 | 3.036 | 4.830 | 0.916
GPFGMPSSGQNQQT |  |  |  |  | 0.560 | 2.260 | 2.700 | 0.727
GSGQNQQTVGGKNL | 1.051 | 1.203 | 0.128 | 0.777 |  |  |  | 
GSGQNQQTTAATRM | 1.005 | 1.163 | 3.925 | 0.947 |  |  |  | 
GSGQNQQTSGTTNC |  |  |  |  | 0.806 | 1.854 | 8.161 | 1.040
GSGQNQQTVPTRQT |  |  |  |  | 0.138 | 1.040 | 1.207 | 0.629
GSGQNQQHPSTQQT | 0.680 | 1.205 | 1.552 | 1.017 |  |  |  | 
GSGQNQQTMDHNRT |  |  |  |  | 0.440 | 2.130 | 4.944 | 0.642
GSGQNQQTAMRSTT |  |  |  |  | 0.665 | 1.581 | 2.588 | 0.656
GSGQNQQTPLRPPT |  |  |  |  | 0.472 | 1.624 | 0.352 | 0.874
